From patent US8937073B2, “Disubstituted tetrahydrofuranyl compounds and their use as B1-receptor antagonists” (Boehringer Ingelheim International GmbH, priority 2010, dated 2015)

Molecular target: T1, cynomolgus B1 receptor (Macaca fascicularis, UniProt Q3BCU0)
T1 construct: expressed in transfected cells; host or cells: CHO cells
T1 sequence (Q3BCU0 1-352): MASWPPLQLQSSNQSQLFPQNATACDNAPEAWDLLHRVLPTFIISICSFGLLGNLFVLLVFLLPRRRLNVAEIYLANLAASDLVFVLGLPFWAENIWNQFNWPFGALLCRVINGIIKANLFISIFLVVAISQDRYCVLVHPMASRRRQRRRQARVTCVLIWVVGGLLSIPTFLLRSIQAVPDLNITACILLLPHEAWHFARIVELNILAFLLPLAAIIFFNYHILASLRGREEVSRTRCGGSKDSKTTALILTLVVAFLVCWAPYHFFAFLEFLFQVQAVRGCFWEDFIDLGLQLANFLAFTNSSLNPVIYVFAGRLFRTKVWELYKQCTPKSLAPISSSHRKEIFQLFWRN
Experiment: cynoBK1-receptor binding assay
Conditions: homogenate of CHO cells expressing the cynomolgus B1 receptor; radioligand 0.5 to 5.0 nM kallidine (DesArg10,Leu9), [3,4-Prolyl-3,43H(N)]; 60-180 minutes at ambient temperature
Procedure: Description of the Method of Binding the cynoBK1-Receptor
CHO cells that express the cynomolgus B1 receptor are cultivated in “HAM′S F-12 Medium”. The medium is removed from confluent cultures, the cells are washed with PBS buffer, scraped off or detached using Versene and isolated by centrifuging. Then the cells are homogenised in suspension, the homogenate is centrifuged and resuspended. After the protein content has been determined 200 μl of the homogenate (50 to 250 μg protein/assay) are incubated for 60-180 minutes at ambient temperature with 0.5 to 5.0 nM kallidine (DesArg10,Leu9), [3,4-Prolyl-3,43H(N)] and increasing concentrations of the test substance in a total volume of 250 μl. The incubation is stopped by rapid filtration through GF/B glass fibre filters that have been pre-treated with polyethyleneimine (0.3%). The radioactivity bound to the protein is measured with a TopCount NXT. The radioactivity bound in the presence of 1.0 μM kallidine (DesArg10) is defined as non-specific binding. The concentration binding curve may be analysed using computer-aided non-linear curve fitting to determine the corresponding Ki value for the test substance.
Test Results of the cynoBK1-Receptor Binding Assay: […]

| Compound | Ki [nM] |
| --- | --- |
| (S)-5-amino-N-(3-{[3-chloro-5-(4-methoxy-2-trifluoromethyl-phenylamino)-pyridin-2-yl-methyl]-carbamoyl}-tetrahydrofuran-3-yl)-nicotinamide [Example 6] | 18 |
| (S)-5-amino-N-(3-{[3-fluoro-5-(4-methoxy-2-trifluoromethyl-phenylamino)-pyridin-2-ylmethyl]-carbamoyl}-tetrahydrofuran-3-yl)-nicotinamide [Example 3] | 4.7 |
| (S)-5-amino-N-{3-[4-(4-methoxy-2-trifluoromethyl-phenylamino)-benzylcarbamoyl]-tetrahydrofuran-3-yl}-nicotinamide [Example 4] | 3.6 |
| (S)-6-oxo-1,6-dihydro-pyridazine-4-carboxylic acid-{3-[2-fluoro-4-(4-methoxy-2-trifluoromethyl-phenylamino)-benzylcarbamoyl]-tetrahydrofuran-3-yl}-amide [Example 1] | 1 |
| COc1ccc(Nc2ccc(CNC(=O)[C@]3(NC(=O)c4cn[nH]c(=O)c4)CCOC3)c(F)c2)c(C(F)(F)F)c1 [Example 21] | 1.6 |
